# Data reported in patent US10882867B2, “Forms and compositions of a MK2 inhibitor” (Celgene CAR LLC, priority 2017, dated 2021).
# Experiments:
# Assay type in all cases: physicochemical
# [1] = Approximate solubility of Compound 1 Form A at room temperature; conditions: for solubility at 1 day: thermodynamic from solid
# Text: Solubility of Form A was approximated in the following solvents: acetonitrile (ACN), ACN/water (1:1), n-butanol (n-BuOH), absolute ethanol (EtOH), ethanol/water (1:1), methanol (MeOH), 2-propanol (IPA), ethyl acetate (EtOAc), methyl acetate (MeOAc), dichloromethane (DCM), methyl ethyl ketone (MEK), methyl t-butyl ether (MTBE), heptane, toluene, methyl acetate (MeOAc), isopropyl acetate (IPAc), methyl isobutyl ketone (MIBK), 2-methyltetrahydrofuran (2-MeTHF), 1,4-dioxane, tetrahydrofuran (THF), THF/water (1:1), water, dimethyl sufoxide (DMSO), dimethylacetamide (DMA, DMAc), and N-methylpyrrolidone (NMP). A weighed sample of Form A (about 50 mg) was treated with a known volume of a test solvent. The resulting mixture was agitated for 1 day at room temperature. If all of the solids appeared to be dissolved by visual inspection, the estimated solubility was calculated based on the total volume of solvent used to give a complete solution. If solids were present, a known volume of filtrate was evaporated to dryness and the weight of the residue was measured to estimate the solubility.
# [2] = Dynamic vapor sorption (DVS) hygroscopicity; conditions: for DVS water uptake: between 0 and 90% RH, room temperature
# Method: Hygroscopicity was determined on a Surface Measurement Systems DVS. A sample size of 5-20 mg was loaded into the DVS instrument sample pan and the sample was analyzed on a DVS automated sorption analyzer at room temperature. The relative humidity was increased from 0% to 90% RH at 10% RH step, then decreased in a similar manner to accomplish a full adsorption/desorption cycle. FIGS. 29-33 depict the DVS isotherm plots of Forms A, C, D, E, and I.
# [3] = Form conversion (form transfer) experiments: slurry, compression, heating, humidity cycle
# Method: Form conversion experiments were performed to determine interconversion among solid forms.
# The stability of Form A was further characterized by compression test and form transfer experiments (Table 6). Upon application of 2000-psi pressure for about 1 minute, the material was still Form A, with broader diffraction peaks (FIG. 42(c)).
structure (smiles),measurement,setting,value
"CCOCc1cnc(Cl)nc1Oc1ccc2c(ccc3sc4c(c32)NC[C@@H](C)NC4=O)n1 [Form A, (R)-3-((2-chloro-5-(ethoxymethyl)pyrimidin-4-yl)oxy)-10-methyl-9,10,11,12-tetrahydro-8H-[1,4]diazepino[5′,6′:4,5]thieno[3,2-f]quinolin-8-one]",solubility at 1 day,"[1]; 2-MeTHF (2-methyltetrahydrofuran), organic solvent or mixture, 2-MeTHF, 1 day",< 2000 µg/mL
same,solubility at 1 day,"[1]; ACN (acetonitrile), organic solvent or mixture, ACN, 1 day",< 2000 µg/mL
same,solubility at 1 day,"[1]; ACN/water (1:1), aqueous with cosolvent or surfactant or cyclodextrin, ACN/water (1:1), 1 day",< 1000 µg/mL
same,solubility at 1 day,"[1]; DCM (dichloromethane), organic solvent or mixture, DCM, 1 day",8000 to 16000 µg/mL
same,Approximate Solubility,"[1]; DCM, 1 day",<9000 µg/mL
same,solubility at 1 day,"[1]; DMA (dimethylacetamide), organic solvent or mixture, DMA, 1 day",> 50000 µg/mL
same,Approximate Solubility,"[1]; DMA, 1 day",>50000 µg/mL
same,Approximate Solubility,"[1]; DMSO, 1 day",>50000 µg/mL
same,solubility at 1 day,"[1]; DMSO, organic solvent or mixture, 1 day",> 50000 µg/mL
same,solubility at 1 day,"[1]; EtOAc (ethyl acetate), organic solvent or mixture, EtOAc, 1 day",< 1000 µg/mL
same,solubility at 1 day,"[1]; EtOH (absolute ethanol), organic solvent or mixture, EtOH, 1 day",< 2000 µg/mL
same,solubility at 1 day,"[1]; EtOH/water (1:1), aqueous with cosolvent or surfactant or cyclodextrin, EtOH/water (1:1), 1 day",< 1000 µg/mL
same,solubility at 1 day,"[1]; IPA (2-propanol), organic solvent or mixture, IPA, 1 day",< 1000 µg/mL
same,solubility at 1 day,"[1]; IPAc (isopropyl acetate), organic solvent or mixture, IPAc, 1 day",< 1000 µg/mL
same,solubility at 1 day,"[1]; MEK (methyl ethyl ketone), organic solvent or mixture, MEK, 1 day",> 2000 µg/mL
same,Approximate Solubility,"[1]; MEK, 1 day",<3000 µg/mL
same,solubility at 1 day,"[1]; MIBK (methyl isobutyl ketone), organic solvent or mixture, MIBK, 1 day",< 1000 µg/mL
same,solubility at 1 day,"[1]; MTBE (methyl t-butyl ether), organic solvent or mixture, MTBE, 1 day",< 1000 µg/mL
same,solubility at 1 day,"[1]; MeOAc (methyl acetate), organic solvent or mixture, MeOAc, 1 day",< 2000 µg/mL
same,solubility at 1 day,"[1]; MeOH (methanol), organic solvent or mixture, MeOH, 1 day",< 3000 µg/mL
same,solubility at 1 day,"[1]; NMP (N-methylpyrrolidone), organic solvent or mixture, NMP, 1 day",> 50000 µg/mL
same,Approximate Solubility,"[1]; NMP, 1 day",>50000 µg/mL
same,solubility at 1 day,"[1]; THF (tetrahydrofuran), organic solvent or mixture, THF, 1 day",8000 to 16000 µg/mL
same,Approximate Solubility,"[1]; THF, 1 day",<10000 µg/mL
same,Approximate Solubility,"[1]; THF/water (1:1), 1 day",<16000 µg/mL
same,solubility at 1 day,"[1]; THF/water (1:1), aqueous with cosolvent or surfactant or cyclodextrin, THF/water (1:1), 1 day",8000 to 16000 µg/mL
same,Approximate Solubility,"[1]; acetone, 1 day",<3000 µg/mL
same,solubility at 1 day,"[1]; acetone, organic solvent or mixture, 1 day",> 2000 µg/mL
same,solubility at 1 day,"[1]; heptane, organic solvent or mixture, 1 day",< 1000 µg/mL
same,solubility at 1 day,"[1]; n-BuOH (n-butanol), organic solvent or mixture, n-BuOH, 1 day",< 1000 µg/mL
same,solubility at 1 day,"[1]; organic solvent or mixture, all other solvents tested (not DMSO, DMA, NMP, THF/water, THF, DCM, acetone, 1,4-dioxane, MEK)",< 3000 µg/mL
same,solubility at 1 day,"[1]; toluene, organic solvent or mixture, 1 day",< 1000 µg/mL
same,solubility at 1 day,"[1]; water, 1 day",< 1000 µg/mL
same,Hygroscopicity,"[2]; DVS, 0 to 90% RH",slightly hygroscopic
same,DVS water uptake,[2],about 2.5 wt %
same,DVS water uptake,[2]; listed as A,DVS: ~2.5 wt % water
same,Resulting Form(s),"[3]; 0-90-0% RH cycle in DVS, 25° C.",No form change
same,Resulting Form(s),"[3]; compression, 2000 psi, RT, 1 min",still Form A
same,Resulting Form(s),"[3]; heating in KF oven, 190° C., ~10 min",confirmed to be Form A
